29 compounds from US12098139B2, “Chemokine receptor modulators and uses thereof” (RAPT Therapeutics, Inc., priority 2018, dated 2024) can be followed below.

In the first assay the target is T1, hCCR4 (Chem5-hCCR4 cells) (Homo sapiens, UniProt P51679).
T1 sequence (P51679 1-360): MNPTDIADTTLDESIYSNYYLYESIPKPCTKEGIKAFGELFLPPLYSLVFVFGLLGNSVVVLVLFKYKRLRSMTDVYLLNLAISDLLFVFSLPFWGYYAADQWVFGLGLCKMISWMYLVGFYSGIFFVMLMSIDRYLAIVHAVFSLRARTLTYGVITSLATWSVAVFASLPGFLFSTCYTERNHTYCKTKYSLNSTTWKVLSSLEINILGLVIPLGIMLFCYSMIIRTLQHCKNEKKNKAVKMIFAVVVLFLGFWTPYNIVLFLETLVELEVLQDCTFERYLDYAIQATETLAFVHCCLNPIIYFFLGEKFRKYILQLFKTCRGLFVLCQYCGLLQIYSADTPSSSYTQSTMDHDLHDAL
Kind of assay: Calcium flux assay (CCL22-stimulated, FLIPR Calcium 6 dye). The format is cell-based. The settings on record: Table 3, CCL22 1.5 nM, read-out: Potency (IC50). The procedure:
Calcium Flux Assay. Compounds were evaluated in a calcium flux assay substantially performed as follows. Chem5-hCCR4 cells (EMD Millipore, Hayward, CA; HTS009C) were cultured under standard conditions and frozen in aliquots of 10×10^6 cells/mL. The day prior to compound testing, a vial was rapidly thawed and pipetted into 20 mL media (DMEM+10% FBS+1% Pen-Strep+1% L-glutamine). Cells were harvested by centrifugation and re-suspended in fresh culture medium. 25 μL of cell suspension was seeded into 384-well plates (Corning, Tewksbury, MA; CellBind with black wall/clear bottom). The plates were centrifuged at 300 g for 10 seconds and incubated overnight at 37° C. and 5% CO2. The day of compound testing, media was removed from the plates and 25 μL serum free media was added to each well. Plates were returned to the incubator for 2 h. 25 μL assay buffer (Hank's balanced salt solution+20 mM HEPES pH 7.4) containing FLIPR Calcium 6 dye (Molecular Devices, Sunnyvale, CA; #R8191) and probenecid (2.5 mM) was added to each well and incubated at 37° C. and 5% CO2 for 2 h. Compounds in DMSO were added to the plates using an HP D300e digital dispenser, and all wells were normalized to contain 0.25 μL (0.5%) DMSO. Plates were incubated for 1 hour at 37° C. and 5% CO2. CCL22 (Peprotech; Rockyhill, NJ) was diluted in assay buffer containing 0.1% BSA to 7.5 nM (corresponding to 5×EC80 of 1.5 nM).
Assay plates and working solution of CCL22 were transferred to the FlexStation plate reader (Molecular Devices) at 37° C. for 5 min of equilibration. Fluorescence recordings at 485 excitation/525 emission were performed at 2.5 second intervals. At t=16 seconds, 12.5 μL of CCL22 solution was added to each well and reads continued for 30 seconds at 2.5 second intervals. The minimum fluorescence (Fmin) was calculated by averaging the reads prior to ligand addition and the change in fluorescence (ΔF) was calculated by subtracting the Fmin from the average of the reads following ligand addition. The response ΔF/Fmin was plotted as a function of the compound concentration and the IC50 values were determined by non-linear regression analysis using a 4-parameter fit in either PRISM software (GraphPad; La Jolla, CA) or Dotmatics Browser.
(In general: Calcium assays in cells follow changes in intracellular calcium, usually with a dye or a luminescent sensor.)
The IC50 is the concentration needed to halve the response being measured. On to `C[C@@H](Nc1nc(N2CC([C@H]3CCCN(CCO)C3)C2)cnc1C#N)c1ccc(Cl)cc1Cl` [Example 1, 3-(((R)-1-(2,4-dichlorophenyl)ethyl)amino)-5-(3-((R)-1-(2-hydroxyethyl)piperidin-3-yl)azetidin-1-yl)pyrazine-2-carbonitrile], for which the IC50 was less than 0.1 µM. On the same count and under the same terms, next, `C[C@@H](Nc1cncc(N2CC([C@H]3CCCN(CCO)C3)C2)n1)c1ccc(Cl)cc1Cl` [Example 2, 2-((R)-3-(1-(6-(((R)-1-(2,4-dichlorophenyl)ethyl)amino)pyrazin-2-yl)azetidin-3-yl)piperidin-1-yl)ethan-1-ol]: 0.1 to 0.5 µM. As for `Cc1ncc(N2CC([C@H]3CCCN(CCO)C3)C2)nc1N[C@H](C)c1ccc(Cl)cc1Cl` [Example 3, 2-((R)-3-(1-(6-(((R)-1-(2,4-dichlorophenyl)ethyl)amino)-5-methylpyrazin-2-yl)azetidin-3-yl)piperidin-1-yl)ethan-1-ol], the IC50 was more than 0.5 µM. Still for that read-out and setting: next, `C[C@@H](Nc1cnc(C#N)c(N2CC([C@H]3CCCN([C@H]4C[C@@H](C(=O)O)C4)C3)C2)n1)c1ccc(Cl)cc1Cl` [Example 4, (1S,3s)-3-((R)-3-(1-(3-cyano-6-(((R)-1-(2,4-dichlorophenyl)ethyl)amino)pyrazin-2-yl)azetidin-3-yl)piperidin-1-yl)cyclobutane-1-carboxylic acid]: more than 0.5 µM. On the same count and under the same terms, next, `C[C@@H](Nc1nc(N2CC([C@H]3CCCN([C@H]4C[C@@H](C(=O)O)C4)C3)C2)cnc1C#N)c1ccc(Cl)cc1Cl` [Example 5, (1S,3s)-3-((R)-3-(1-(5-cyano-6-(((R)-1-(2,4-dichlorophenyl)ethyl)amino)pyrazin-2-yl)azetidin-3-yl)piperidin-1-yl)cyclobutane-1-carboxylic acid]: 0.1 to 0.5 µM; `C[C@@H](Nc1nc(N2CC([C@H]3CCCN(C4CCCC4C(=O)O)C3)C2)cnc1C#N)c1ccc(Cl)cc1Cl` (stereo partly drawn) [Example 6, 2-((R)-3-(1-(5-cyano-6-(((R)-1-(2,4-dichlorophenyl)ethyl)amino)pyrazin-2-yl)azetidin-3-yl)piperidin-1-yl)cyclopentane-1-carboxylic acid]: 0.1 to 0.5 µM; `C[C@@H](Nc1nc(N2CC([C@H]3CCCN(CCO)C3)C2)cnc1C#N)c1ccc(S(C)(=O)=O)cc1Cl` [Example 7, 3-(((R)-1-(2-chloro-4-(methylsulfonyl)phenyl)ethyl)amino)-5-(3-((R)-1-(2-hydroxyethyl)piperidin-3-yl)azetidin-1-yl)pyrazine-2-carbonitrile]: more than 0.5 µM. Same read-out and setting: next, `C[C@@H](Nc1nc(N2CC([C@H]3CCCN([C@H]4C[C@@H](C(=O)O)C4)C3)C2)ncc1Cl)c1ccc(Cl)cc1Cl` [Example 8, (1S,3s)-3-((R)-3-(1-(5-chloro-4-(((R)-1-(2,4-dichlorophenyl)ethyl)amino)pyrimidin-2-yl)azetidin-3-yl)piperidin-1-yl)cyclobutane-1-carboxylic acid]: less than 0.1 µM. For `C[C@@H](Nc1nc(N2CC([C@H]3CCCN([C@H]4C[C@@H](C(=O)O)C4)C3)C2)ncc1Br)c1ccc(Cl)cc1Cl` [Example 9, (1S,3s)-3-((R)-3-(1-(5-bromo-4-(((R)-1-(2,4-dichlorophenyl)ethyl)amino)pyrimidin-2-yl)azetidin-3-yl)piperidin-1-yl)cyclobutane-1-carboxylic acid], the IC50 was less than 0.1 µM.

The assay is the same for the next values; noted with them: Table 4, CCL22 1.5 nM, read-out: Potency (IC50).
As to `C[C@@H](Nc1cnc(C#N)c(N2CC([C@H]3CCCN(C4CC(C)(C(=O)O)C4)C3)C2)n1)c1ccc(Cl)cc1Cl` (single isomer, unassigned) [Example 52], the IC50 is more than 0.5 µM.

Still in this assay, the particulars now being: Table 5, CCL22 1.5 nM, read-out: Potency (IC50).
Take `C[C@@H](Nc1nc(N2CC([C@H]3CCCN(C4CC(C)(C(=O)O)C4)C3)C2)ncc1C1CC1)c1ccc(Cl)cc1Cl` (single isomer, unassigned) [Example 54]: the IC50 was less than 0.1 µM. Same read-out and setting: next, `Cc1cc2c(N[C@H](C)c3ccc(Cl)cc3Cl)nc(N3CC([C@H]4CCCN(C5CC(C)(C(=O)O)C5)C4)C3)nc2s1` (single isomer, unassigned) [Example 67, trifluoroacetic acid]: less than 0.1 µM. Same read-out and setting: next, `C[C@@H](Nc1nc(N2CC([C@H]3CCCN(C4CC(C)(C(=O)O)C4)C3)C2)ncc1CO)c1ccc(Cl)cc1Cl` (single isomer, unassigned) [Example 68]: less than 0.1 µM. With `C[C@@H](Nc1nc(N2CC([C@H]3CCCN(C4CC(C)(C(=O)O)C4)C3)C2)nc2nc[nH]c12)c1ccc(Cl)cc1Cl` (single isomer, unassigned) [Example 69], the IC50 was 0.1 to 0.5 µM. Still for that read-out and setting: next, `C[C@@H](Nc1nc(N2CC([C@H]3CCCN(C4CC(C)(C(=O)O)C4)C3)C2)nc2scnc12)c1ccc(Cl)cc1Cl` (single isomer, unassigned) [Example 71, trifluoroacetic acid]: less than 0.1 µM; `C[C@@H](Nc1nc(N2CC([C@H]3CCCN(C4CC(C)(C(=O)O)C4)C3)C2)nc2cc[nH]c12)c1ccc(Cl)cc1Cl` (single isomer, unassigned) [Example 72, trifluoroacetic acid]: less than 0.1 µM; `Cc1csc2nc(N3CC([C@H]4CCCN(C5CC(C)(C(=O)O)C5)C4)C3)nc(N[C@H](C)c3ccc(Cl)cc3Cl)c12` (single isomer, unassigned) [Example 74, trifluoroacetic acid]: less than 0.1 µM. As to `C[C@@H](Nc1nc(N2CC([C@H]3CCCN(C4CC(C)(C(=O)O)C4)C3)C2)nc2[nH]ccc12)c1ccc(Cl)cc1Cl` (single isomer, unassigned) [Example 75, trifluoroacetic acid], the IC50 was less than 0.1 µM.

As to `CCc1nc(N2CC([C@H]3CCCN(C4CC(C)(C(=O)O)C4)C3)C2)nc(N[C@H](C)c2ccc(Cl)cc2Cl)c1Cl` (single isomer, unassigned) [Example 77], the IC50 was less than 0.1 µM. On the same count and under the same terms, next, `CC(=O)c1cnc(N2CC([C@H]3CCCN(C4CC(C)(C(=O)O)C4)C3)C2)nc1N[C@H](C)c1ccc(Cl)cc1Cl` (single isomer, unassigned) [Example 78]: less than 0.1 µM; `C[C@@H](Nc1cc(C2CC2)nc(N2CC([C@H]3CCCN(C4CC(C)(C(=O)O)C4)C3)C2)n1)c1ccc(Cl)cc1Cl` (single isomer, unassigned) [Example 80]: less than 0.1 µM; `C[C@@H](Nc1nc(N2CC([C@H]3CCCN(C4CC(C)(C(=O)O)C4)C3)C2)nc2ccn(C)c12)c1ccc(Cl)cc1Cl` (single isomer, unassigned) [Example 81, trifluoroacetic acid]: less than 0.1 µM. As to `COc1cc(N[C@H](C)c2ccc(Cl)cc2Cl)nc(N2CC([C@H]3CCCN(C4CC(C)(C(=O)O)C4)C3)C2)n1` (single isomer, unassigned) [Example 82], the IC50 is more than 0.5 µM.

In the case of `COc1cnc(N2CC([C@H]3CCCN(C4CC(C)(C(=O)O)C4)C3)C2)nc1N[C@H](C)c1ccc(Cl)cc1Cl` (single isomer, unassigned) [Example 83], the IC50 is less than 0.1 µM. Same read-out and setting: next, `C[C@@H](Nc1nc(N2CC([C@H]3CCCN(C4CC(C)(C(=O)O)C4)C3)C2)nc(CO)c1Cl)c1ccc(Cl)cc1Cl` (single isomer, unassigned) [Example 86]: less than 0.1 µM; `C[C@@H](Nc1nc(N2CC([C@H]3CCCN(C4CC(C)(C(=O)O)C4)C3)C2)nc(CF)c1Cl)c1ccc(Cl)cc1Cl` (single isomer, unassigned) [Example 89]: less than 0.1 µM.

Take `Cc1cc(N[C@H](C)c2ccc(Cl)cc2Cl)nc(N2CC([C@H]3CCCN(C4CC(C)(C(=O)O)C4)C3)C2)n1` (single isomer, unassigned) [Example 90]: the IC50 is less than 0.1 µM.

In the case of `Cc1nc(N2CC([C@H]3CCCN(C4CC(C)(C(=O)O)C4)C3)C2)nc(N[C@H](C)c2ccc(Cl)cc2Cl)c1F` (single isomer, unassigned) [Example 91, trifluoroacetic acid], the IC50 is less than 0.1 µM. The same measure, in the same setting: next, `CCc1cc(N[C@H](C)c2ccc(Cl)cc2Cl)nc(N2CC([C@H]3CCCN(C4CC(C)(C(=O)O)C4)C3)C2)n1` (single isomer, unassigned) [Example 92]: less than 0.1 µM.
